Like-named read-outs stand apart in the source and are kept apart here.
Experiments:
Monoamine Oxidase MAO-B = biological target: T1, Monoamine Oxidase MAO-B (Homo sapiens, UniProt P27338); assay: Monoamine Oxidase MAO-B; format: biochemical; details: for remaining activity at 10 µM: assay year 2015, read-out: % Control Response
T1 construct: host or cells: Insect Hi5 cells
T1 sequence (P27338 1-520): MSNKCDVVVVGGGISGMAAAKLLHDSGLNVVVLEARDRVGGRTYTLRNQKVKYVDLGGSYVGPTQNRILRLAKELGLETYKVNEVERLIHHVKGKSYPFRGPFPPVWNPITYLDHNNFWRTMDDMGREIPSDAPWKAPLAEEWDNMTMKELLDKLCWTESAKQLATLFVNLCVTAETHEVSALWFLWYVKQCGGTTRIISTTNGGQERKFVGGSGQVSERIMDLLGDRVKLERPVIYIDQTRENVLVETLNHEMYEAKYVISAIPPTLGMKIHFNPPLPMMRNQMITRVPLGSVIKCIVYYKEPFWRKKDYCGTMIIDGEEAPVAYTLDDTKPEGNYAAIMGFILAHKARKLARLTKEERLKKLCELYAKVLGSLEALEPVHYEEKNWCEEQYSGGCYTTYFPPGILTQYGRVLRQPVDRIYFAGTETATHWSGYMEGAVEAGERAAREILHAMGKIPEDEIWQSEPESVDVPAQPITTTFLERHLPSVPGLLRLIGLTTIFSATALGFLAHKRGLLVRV
Procedure: (§1) The in vitro pharmacological studies were conducted by Eurofins PanLab (Taiwan) using the parameters shown in Table 13 with respect to appropriate literature references.

Myeloperoxidase = biological target: T2, Myeloperoxidase (Homo sapiens, UniProt P05164); assay: Myeloperoxidase; format: biochemical
T2 construct: Human PMN leukocytes; from tissue; host or cells: human PMN leukocytes
T2 sequence (P05164 49-745): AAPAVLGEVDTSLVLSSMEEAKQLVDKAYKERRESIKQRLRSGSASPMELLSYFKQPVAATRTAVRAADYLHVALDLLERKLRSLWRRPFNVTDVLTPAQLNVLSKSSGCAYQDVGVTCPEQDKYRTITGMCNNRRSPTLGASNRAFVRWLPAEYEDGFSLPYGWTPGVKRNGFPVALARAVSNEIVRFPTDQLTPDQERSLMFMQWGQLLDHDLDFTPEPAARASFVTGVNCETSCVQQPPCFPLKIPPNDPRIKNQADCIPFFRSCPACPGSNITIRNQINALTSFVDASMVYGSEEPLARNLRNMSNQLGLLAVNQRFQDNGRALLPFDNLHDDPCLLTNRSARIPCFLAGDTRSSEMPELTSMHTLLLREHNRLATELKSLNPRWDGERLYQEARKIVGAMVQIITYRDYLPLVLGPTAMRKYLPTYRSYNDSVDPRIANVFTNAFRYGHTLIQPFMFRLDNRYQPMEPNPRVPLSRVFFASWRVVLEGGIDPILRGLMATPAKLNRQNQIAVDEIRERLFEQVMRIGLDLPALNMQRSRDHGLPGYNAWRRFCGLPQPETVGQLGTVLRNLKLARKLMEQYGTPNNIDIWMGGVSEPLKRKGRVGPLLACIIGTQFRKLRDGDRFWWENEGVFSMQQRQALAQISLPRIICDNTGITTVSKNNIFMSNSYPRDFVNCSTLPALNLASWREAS
Procedure: as §1

[1] = biological target: T3, Epidermal Growth Factor (EGF) (Homo sapiens, UniProt P00533); assay: Epidermal Growth Factor (EGF) radio ligand binding; details: assay year 2015, read-out: % Control Response
T3 construct: Human A431 cells; endogenous in cells; host or cells: A431 cells
T3 sequence (P00533 25-1210): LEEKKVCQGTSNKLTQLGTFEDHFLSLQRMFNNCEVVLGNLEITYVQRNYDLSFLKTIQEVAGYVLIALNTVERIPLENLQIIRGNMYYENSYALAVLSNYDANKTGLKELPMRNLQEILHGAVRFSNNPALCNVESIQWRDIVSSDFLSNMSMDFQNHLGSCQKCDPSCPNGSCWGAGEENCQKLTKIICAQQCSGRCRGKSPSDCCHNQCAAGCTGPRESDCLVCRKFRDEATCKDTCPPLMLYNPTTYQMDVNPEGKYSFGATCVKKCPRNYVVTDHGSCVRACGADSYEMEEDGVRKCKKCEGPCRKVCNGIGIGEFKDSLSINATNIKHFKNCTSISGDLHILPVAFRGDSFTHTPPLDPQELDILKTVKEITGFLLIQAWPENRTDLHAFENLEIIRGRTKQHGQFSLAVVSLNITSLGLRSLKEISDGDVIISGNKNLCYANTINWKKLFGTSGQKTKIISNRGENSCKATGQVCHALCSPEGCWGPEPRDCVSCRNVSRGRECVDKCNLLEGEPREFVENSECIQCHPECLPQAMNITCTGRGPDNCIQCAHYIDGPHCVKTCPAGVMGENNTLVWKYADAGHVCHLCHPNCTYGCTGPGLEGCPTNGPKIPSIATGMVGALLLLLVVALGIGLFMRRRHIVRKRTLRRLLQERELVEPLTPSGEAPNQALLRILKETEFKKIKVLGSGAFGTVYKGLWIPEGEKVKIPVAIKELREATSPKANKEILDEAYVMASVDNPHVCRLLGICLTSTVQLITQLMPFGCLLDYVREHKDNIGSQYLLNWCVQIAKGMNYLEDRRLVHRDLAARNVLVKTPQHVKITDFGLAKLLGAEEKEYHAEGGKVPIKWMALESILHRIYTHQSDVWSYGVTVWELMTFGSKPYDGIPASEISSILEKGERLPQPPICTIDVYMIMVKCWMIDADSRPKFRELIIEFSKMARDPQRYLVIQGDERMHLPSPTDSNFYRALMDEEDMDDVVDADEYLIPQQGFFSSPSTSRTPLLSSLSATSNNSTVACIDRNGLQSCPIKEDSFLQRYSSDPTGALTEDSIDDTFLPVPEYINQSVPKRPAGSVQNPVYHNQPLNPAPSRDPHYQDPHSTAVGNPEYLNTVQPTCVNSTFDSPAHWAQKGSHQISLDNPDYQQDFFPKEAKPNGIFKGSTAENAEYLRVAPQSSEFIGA
Procedure: as §1

[2] = biological target: T4, CYP1A (Phenacetin Substrate) (Homo sapiens, UniProt P05177); assay: Cytochrome P450 Inhibition (CYP panel); format: in vitro ADME; details: read-out: IC50 (estimated)
T4 sequence (P05177 1-516): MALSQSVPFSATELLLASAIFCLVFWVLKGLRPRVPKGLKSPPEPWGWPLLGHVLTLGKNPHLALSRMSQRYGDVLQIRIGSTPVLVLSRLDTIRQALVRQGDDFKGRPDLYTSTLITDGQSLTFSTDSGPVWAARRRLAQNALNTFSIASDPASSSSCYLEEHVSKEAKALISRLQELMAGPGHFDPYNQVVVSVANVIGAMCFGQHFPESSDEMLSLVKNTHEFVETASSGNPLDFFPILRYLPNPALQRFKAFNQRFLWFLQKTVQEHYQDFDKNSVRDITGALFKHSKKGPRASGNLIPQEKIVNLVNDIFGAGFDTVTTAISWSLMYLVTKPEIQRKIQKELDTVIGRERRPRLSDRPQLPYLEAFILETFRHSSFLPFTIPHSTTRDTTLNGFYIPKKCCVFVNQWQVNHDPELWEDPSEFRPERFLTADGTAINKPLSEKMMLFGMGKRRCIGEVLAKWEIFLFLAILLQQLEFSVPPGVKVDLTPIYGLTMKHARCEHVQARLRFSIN

CYP1A = biological target: T5, CYP1A (Homo sapiens, UniProt P05177); assay: Cytochrome P450 Inhibition (CYP panel); format: in vitro ADME; details: probe phenacetin
T5 sequence (P05177 1-516): T4 sequence (P05177 1-516)

[3] = biological target: T6, sirtuin 2 (h) (inhibitor effect) (Homo sapiens, UniProt Q8IXJ6); assay: Epigenetic enzyme assay, Sirtuins; format: biochemical; details: 10 μM; read-out: % Inhibition of Control Values
T6 sequence (Q8IXJ6 1-389): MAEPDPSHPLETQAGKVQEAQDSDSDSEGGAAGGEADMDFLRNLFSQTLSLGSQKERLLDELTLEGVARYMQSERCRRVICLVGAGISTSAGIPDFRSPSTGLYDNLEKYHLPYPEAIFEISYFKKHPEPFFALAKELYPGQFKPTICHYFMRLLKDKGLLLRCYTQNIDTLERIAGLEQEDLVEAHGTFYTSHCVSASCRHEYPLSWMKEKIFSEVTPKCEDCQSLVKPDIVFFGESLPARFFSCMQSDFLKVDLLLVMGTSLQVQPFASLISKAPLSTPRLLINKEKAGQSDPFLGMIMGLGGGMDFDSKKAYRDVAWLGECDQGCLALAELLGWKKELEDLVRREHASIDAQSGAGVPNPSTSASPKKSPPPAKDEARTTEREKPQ

H3K79 me2 = assay: Cell-based detection methyl modifications; details: read-out: % Inhibition of Control Values
H3K27 me3 = assay: Cell-based detection methyl modifications; details: read-out: % Inhibition of Control Values
[4] = assay year 2014, read-out: % Control Response
[5] = assay year 2015, read-out: % Control Response
[6] = human, human liver microsomes, read-out: % inhibition
[7] = CYP1A (phenacetin sub.), Human liver microsomes, read-out: % Inhibition of Control Values

CC(C)=CCC[C@H](CO)[C@@H]1CC[C@@H](C)c2c1cc(C)c(O)c2O [Compound 1, 7,8,18-trihydroxyserrulat-14-ene]
% Control Response (Monoamine Oxidase MAO-B; 10 μM, assay year 2015): potent inhibitor | remaining activity at 10 µM (Monoamine Oxidase MAO-B): 75% | % Control Response (Myeloperoxidase; 10 μM, assay year 2014): inhibited the activity | remaining activity at 10 µM (Myeloperoxidase; [4]): 52% | remaining activity at 10 µM (Myeloperoxidase; [5]): 27% | remaining activity at 10 µM [1]: -8% | IC50 [2]: < 10 µM | inhibition at 1 µM (CYP1A; [6]): 28% | inhibition at 10 µM (CYP1A; [6]): 63 to 92% | inhibition at 1 µM (CYP1A; [7]): 28% | inhibition at 10 µM (CYP1A; [7]): 92% | inhibition at 10 µM [3]: -4% | inhibition at 10 µM (H3K79 me2): -2% | inhibition at 10 µM (H3K27 me3): -8%

CC(C)=CCC[C@@H]1C(O)Oc2c(C)cc(O)c3c2[C@H]1CC[C@H]3C (stereo partly drawn) [Compound 2, 5,18-epoxyserrulat-14-en-8,18-diol]
remaining activity at 10 µM (Monoamine Oxidase MAO-B): 39% | remaining activity at 10 µM (Myeloperoxidase; [4]): 5% | remaining activity at 10 µM (Myeloperoxidase; [5]): 1% | remaining activity at 10 µM [1]: -9% | IC50 [2]: < 10 µM | inhibition at 1 µM (CYP1A; [6]): 38% | inhibition at 10 µM (CYP1A; [6]): 63 to 92% | inhibition at 1 µM (CYP1A; [7]): 38% | inhibition at 10 µM (CYP1A; [7]): 63% | inhibition at 10 µM [3]: 6% | inhibition at 10 µM (H3K79 me2): -16% | inhibition at 10 µM (H3K27 me3): -7%

CC(C)=CCC[C@@H]1COc2c(C)cc(O)c3c2[C@H]1CC[C@H]3C [Compound 3, 5,18-epoxy-8-hydroxyserrulat-14-ene]
remaining activity at 10 µM (Monoamine Oxidase MAO-B): 18% | remaining activity at 10 µM (Myeloperoxidase; [5]): -7% | remaining activity at 10 µM [1]: 4% | inhibition at 10 µM [3]: -19% | inhibition at 10 µM (H3K79 me2): -5% | inhibition at 10 µM (H3K27 me3): 0%

CC(C)=CCC[C@H](C)[C@@H]1CC[C@@H](C)c2c1cc(C)c(O)c2O [Compound 4, 7,8-dihydroxyserrulat-14-ene]
IC50 [2]: < 10 µM | inhibition at 10 µM (CYP1A; [6]): 63 to 92% | inhibition at 1 µM (CYP1A; [7]): 14% | inhibition at 10 µM (CYP1A; [7]): 85%

Source: patent US11331299B2, “Medicinal use of serrulatane diterpenes” (The University of Sydney, priority 2016, dated 2022)
